Patent US10028992B2, “Methods of treating muscular dystrophy” (BOARD OF REGENTS OF THE NEVADA SYSTEM OF HIGHER EDUCATION …, priority 2012, dated 2018)

Test system: α7 integrin promoter
Assay: muscle cell-based assay: α7βgal+/− myoblasts/myotubes, LacZ reporter, β-galactosidase cleavage of FDG
Parameters: species or system mouse
Settings: Myoblasts
How it was run: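 Primary α7βgal+/− mouse myoblasts (LacZ knocked into α7 integrin exon 1, promoter retained), differentiated; promoter activity read as β-galactosidase conversion of non-fluorescent FDG to fluorescein. Hits followed by dose-response, western analysis and myostatin counterscreen.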

Compound	Result in α7+/− β-galactosidase assay (0.5 uM)	Result in α7+/− β-galactosidase assay (1 uM)	Result in α7+/− β-galactosidase assay (5 uM)	Result in α7+/− β-galactosidase assay (10 uM)	Result in α7+/− β-galactosidase assay (20 uM)	Result in α7+/− β-galactosidase assay (40 uM)
CCOC(=O)C1CCCN(C(=O)CNS(=O)(=O)c2ccc(Br)s2)C1 (stereo not drawn) [drawing 708]	−0.01823	0.07424	−0.1417	−0.1278	−0.1459	−0.2189
Cc1nnc(SCC(=O)c2ccc(Br)cc2)s1 [drawing 709]	0.3789	0.2434	0.08324	0.1001	0.111	−0.07647
Cn1ccc(C(=O)Nc2cccnc2Cl)n1 [drawing 710]	0.1419	0.09145	0.0569	0.1922	−0.0349	−0.1785
CCOC(=O)c1sc(=N)n(-c2ccc(OC)cc2)c1C [drawing 711]	0.2274	0.1661	−0.01196	0.01787	−0.3971	−0.6044
COc1c(Cl)cc(/C=C2\C(=O)Nc3ccccc32)cc1Cl [drawing 712]	0.2725	0.2417	0.01335	0.04886	0.1098	−0.01132
COc1c(Cl)cc(/C=C2\C(=O)Nc3ccccc32)cc1Cl [drawing 713]	0.3543	0.1322	−0.0815	−0.2165	−0.302	−0.4698
CC(=O)Oc1c(Cl)cc(/C=C2\C(=O)Nc3ccccc32)cc1Cl [drawing 714]	0.1697	−0.08406	0.02082	0.02563	−0.00439	−0.1892
CCN(CC)CCNC(=O)c1c(C)[nH]c(CC2C(=O)Nc3ccc(F)cc32)c1C (stereo not drawn) [drawing 715]	−0.1627	0.03203	−0.6776	−0.9863	−0.9859	−0.9872
O=C1Nc2ccccc2/C1=C1\Nc2ccccc2C1=O [drawing 716]	0.06101	0.0859	−0.394	−0.2837	−0.157	−0.1933
Cc1[nH]c(/C=C2\C(=O)Nc3ccccc32)c(C)c1CCC(=O)O [drawing 717]	0.01086	0.05675	−0.0938	−0.1338	−0.04064	−0.0832
Cc1cc(C)c(/C=C2\C(=O)Nc3ccccc32)[nH]1 [drawing 718]	0.03555	0.05336	−0.2683	−0.3603	−0.2204	−0.3534
Cc1cc(C)c(/C=C2\C(=O)Nc3ccccc32)[nH]1 [drawing 720]	−0.06315	−0.0048	−0.2673	−0.3421	−0.3332	−0.4797
Cc1cc(C)c(/C=C2\C(=O)Nc3ccccc32)[nH]1 [drawing 721]	−0.05673	−0.01961	−0.2468	−0.2855	−0.1121	−0.2422
O=C1Nc2ccccc2/C1=C1/Nc2ccccc2/C1=N\O [drawing 722]	0.1752	0.3255	−0.404	−0.681	−0.6914	−0.8176
CCN(CC)CCNC(=O)c1c(C)[nH]c(CC2C(=O)Nc3ccc(F)cc32)c1C (stereo not drawn) [drawing 723]	0.02287	0.01135	−0.471	−0.913	−0.9852	−0.9864
